Measured values: patent US7495104B2, “Quinoline or quinazoline derivatives inhibiting auto-phosphorylation of fibroblast growth factor receptors” (Kirin Beer Kabushiki Kaisha, priority 2001, dated 2009)

The compounds below were run against Bek (Homo sapiens, UniProt P21802) (assay: Inhibitory activity against Bek-autophosphorylation using ELISA method in OCUM-2MD3 cells). Settings: 1 hr with compound, read-out: IC50 (concentration necessary for inhibiting 50% of Bek-phosphorylation).
Format: cell-based
Outline: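 OCUM-2MD3 human scirrhous gastric cancer cells in 0.1% FCS were exposed to compound for 1 hr at 37° C, then lysed. Phospho-tyrosine proteins were captured with anti-phosphotyrosine antibody, probed with anti-Bek antibody and peroxidase read-out (A450). Positive control (1000 nM) set 0%, untreated 100%; IC50 from multi-level dilutions.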

Bek, sequence (P21802 431-767 limits assumed): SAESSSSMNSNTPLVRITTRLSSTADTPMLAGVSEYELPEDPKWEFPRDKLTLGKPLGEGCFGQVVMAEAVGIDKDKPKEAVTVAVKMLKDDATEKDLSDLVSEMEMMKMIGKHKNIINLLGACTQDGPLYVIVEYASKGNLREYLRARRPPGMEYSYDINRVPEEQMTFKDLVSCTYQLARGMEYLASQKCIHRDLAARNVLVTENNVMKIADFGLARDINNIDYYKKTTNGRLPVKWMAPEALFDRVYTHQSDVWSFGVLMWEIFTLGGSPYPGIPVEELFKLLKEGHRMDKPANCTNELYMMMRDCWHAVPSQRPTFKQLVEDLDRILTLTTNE

`COc1cc2c(Oc3ccc(Nc4ccc(C(C)(C)C)cc4)c(F)c3)ccnc2cc1OCCN1CCC(CCO)CC1` [Compound 305, 2-[1-(2-{4-[4-(4-Tert-butyl-phenylamino)-3-fluoro-phenoxy]-6-methoxy-quinolin-7-yloxy}-ethyl)-piperidin-4-yl]-ethanol] and `COc1cc2c(Oc3ccc(Nc4ccc(C(C)(C)C)cc4)c(F)c3)ccnc2cc1OCCCN1CCC(CCO)CC1` [Compound 306, 2-[1-(3-{4-[4-(4-Tert-butyl-phenylamino)-3-fluoro-phenoxy]-6-methoxy-quinolin-7-yloxy}-propyl)-piperidin-4-yl]-ethanol] are within 1.5-fold of each other in IC50: 359 nM for the first, 286 nM for the second.

Going from `COc1cc2c(Oc3ccc(Nc4ccc(C(C)(C)C)cc4)cc3Cl)ccnc2cc1OCCN1CCC(O)CC1` [Compound 307, 1-(2-{4-[4-(4-Tert-butyl-phenylamino)-2-chloro-phenoxy]-6-methoxy-quinolin-7-yloxy}-ethyl)-piperidin-4-ol] to `COc1cc2c(Oc3ccc(Nc4ccc(C(C)(C)C)cc4)cc3Cl)ccnc2cc1OCCCN1CCC(O)CC1` [Compound 309, 1-(3-{4-[4-(4-Tert-butyl-phenylamino)-2-chloro-phenoxy]-6-methoxy-quinolin-7-yloxy}-propyl)-piperidin-4-ol], the IC50 falls from 379 nM to 211 nM (1.8-fold). The second is the more potent here.

`COc1cc2c(Oc3ccc(Nc4ccc(C(C)(C)C)cc4)cc3Cl)ccnc2cc1OCCN1CCC(CO)CC1` [Compound 308, [1-(2-{4-[4-(4-Tert-butyl-phenylamino)-2-chloro-phenoxy]-6-methoxy-quinolin-7-yloxy}-ethyl)-piperidin-4-yl]-methanol] and `COc1cc2c(Oc3ccc(Nc4ccc(C(C)(C)C)cc4)cc3Cl)ccnc2cc1OCCCN1CCC(CO)CC1` [Compound 310, [1-(3-{4-[4-(4-Tert-butyl-phenylamino)-2-chloro-phenoxy]-6-methoxy-quinolin-7-yloxy}-propyl)-piperidin-4-yl]-methanol] are within 1.5-fold of each other in IC50: 204 nM for the first, 184 nM for the second.

`COc1cc2c(Oc3ccc(NC(=O)NCCC(C)(C)C)cc3Cl)ccnc2cc1OCCN1CCC(O)CC1` [Compound 311, 1-(3-Chloro-4-{7-[2-(4-hydroxy-piperidin-1-yl)-ethoxy]-6-methoxy-quinolin-4-yloxy}-phenyl)-3-(3,3-dimethyl-butyl)-urea] and `COc1cc2c(Oc3ccc(NC(=O)NCCC(C)(C)C)cc3Cl)ccnc2cc1OCCN1CCC(CO)CC1` [Compound 312, 1-(3-Chloro-4-{7-[2-(4-hydroxymethyl-piperidin-1-yl)-ethoxy]-6-methoxy-quinolin-4-yloxy}-phenyl)-3-(3,3-dimethyl-butyl)-urea] are within 1.5-fold of each other in IC50: 23.1 nM for the first, 20.5 nM for the second.

`COc1cc2c(Oc3ccc(Nc4ccc(C(C)(C)C)cc4)cc3Cl)ccnc2cc1OCCN1CCC(CCO)CC1` [Compound 313, 2-[1-(2-{4-[4-(4-Tert-butyl-phenylamino)-2-chloro-phenoxy]-6-methoxy-quinolin-7-yloxy}-ethyl)-piperidin-4-yl]-ethanol] and `COc1cc2c(Oc3ccc(Nc4ccc(C(C)(C)C)cc4)cc3Cl)ccnc2cc1OCCCN1CCC(CCO)CC1` [Compound 314, 2-[1-(3-{4-[4-(4-Tert-butyl-phenylamino)-2-chloro-phenoxy]-6-methoxy-quinolin-7-yloxy}-propyl)-piperidin-4-yl]-ethanol] are within 1.5-fold of each other in IC50: 367 nM for the first, 277 nM for the second.

First: COc1cc2c(Oc3ccc(NC(=O)NCCC(C)(C)C)cc3Cl)ccnc2cc1OCCN1CCC(CCO)CC1 [Compound 315, 1-[3-Chloro-4-(7-{2-[4-(2-hydroxy-ethyl)-piperidin-1-yl]-ethoxy}-6-methoxy-quinolin-4-yloxy)-phenyl]-3-(3,3-dimethyl-butyl)-urea]
Second: COc1cc2c(Oc3ccc(NC(=O)NCCC(C)(C)C)cc3Cl)ccnc2cc1OCCCN1CCC(CCO)CC1 [Compound 316, 1-[3-Chloro-4-(7-{3-[4-(2-hydroxy-ethyl)-piperidin-1-yl]-propoxy}-6-methoxy-quinolin-4-yloxy)-phenyl]-3-(3,3-dimethyl-butyl)-urea]
The IC50 of the first is 1.6-fold higher: 133 nM for the first, 85.1 nM for the second. The second is the more potent here.

`COc1cc2c(Oc3ccc(NC(=O)NCCC(C)(C)C)c(Cl)c3)ccnc2cc1OCCCN1CC(C)OC(C)C1` (stereo not shown) [Compound 317, 1-(2-Chloro-4-{7-[3-(2,6-dimethyl-morpholin-4-yl)-propoxy]-6-methoxy-quinolin-4-yloxy}-phenyl)-3-(3,3-dimethyl-butyl)-urea] and `COc1cc2c(Oc3ccc(NC(=O)NCCC(C)(C)C)c(Cl)c3)ccnc2cc1OCCCCN1CC(C)OC(C)C1` (stereo not shown) [Compound 321, 1-(2-Chloro-4-{7-[4-(2,6-dimethyl-morpholin-4-yl)-butoxy]-6-methoxy-quinolin-4-yloxy}-phenyl)-3-(3,3-dimethyl-butyl)-urea] are within 1.5-fold of each other in IC50: 20.4 nM for the first, 25.4 nM for the second.

Going from `COc1cc2c(Oc3ccc(NC(=O)NCCC(C)(C)C)cc3Cl)ccnc2cc1OCCCN1CCOCC1` [Compound 318, 1-{3-Chloro-4-[6-methoxy-7-(3-morpholin-4-yl-propoxy)-quinolin-4-yloxy]-phenyl}-3-(3,3-dimethyl-butyl)-urea] to `COc1cc2c(Oc3ccc(NC(=O)NCCC(C)(C)C)cc3F)ccnc2cc1OCCCN1CCOCC1` [Compound 326, 1-(3,3-Dimethyl-butyl)-3-{3-fluoro-4-[6-methoxy-7-(3-morpholin-4-yl-propoxy)-quinolin-4-yloxy]-phenyl}-urea], the IC50 falls from 18.7 nM to under 10 nM.

`COc1cc2c(Oc3ccc(NC(=O)NCCC(C)(C)C)cc3Cl)ccnc2cc1OCCCN1CC(C)OC(C)C1` (stereo not shown) [Compound 319, 1-(3-Chloro-4-{7-[3-(2,6-dimethyl-morpholin-4-yl)-propoxy]-6-methoxy-quinolin-4-yloxy}-phenyl)-3-(3,3-dimethyl-butyl)-urea] and `COc1cc2c(Oc3ccc(NC(=O)NCCC(C)(C)C)cc3F)ccnc2cc1OCCCN1CC(C)OC(C)C1` (stereo not shown) [Compound 327, 1-(3,3-Dimethyl-butyl)-3-(4-{7-[3-(2,6-dimethyl-morpholin-4-yl)-propoxy]-6-methoxy-quinolin-4-yloxy}-3-fluoro-phenyl)-urea] are within 1.5-fold of each other in IC50: 22 nM for the first, 20.6 nM for the second.

`COc1cc2c(Oc3ccc(NC(=O)NCCC(C)(C)C)c(Cl)c3)ccnc2cc1OCCCCN1CCOCC1` [Compound 320, 1-{2-Chloro-4-[6-methoxy-7-(4-morpholin-4-yl-butoxy)-quinolin-4-yloxy]-phenyl}-3-(3,3-dimethyl-butyl)-urea] and `COc1cc2c(Oc3ccc(NC(=O)NCCC(C)(C)C)c(Cl)c3)ccnc2cc1OCCCNCCO` [Compound 334, 1-(2-Chloro-4-{7-[3-(2-hydroxy-ethylamino)-propoxy]-6-methoxy-quinolin-4-yloxy}-phenyl)-3-(3,3-dimethyl-butyl)-urea] are within 1.5-fold of each other in IC50: 21.4 nM for the first, 16.5 nM for the second.

First: COc1cc2nccc(Oc3ccc(NC(=O)NCCC(C)(C)C)cc3)c2cc1OCCCN1CCC(O)CC1 [Compound 322, 1-(3,3-Dimethyl-butyl)-3-(4-{6-[3-(4-hydroxy-piperidin-1-yl)-propoxy]-7-methoxy-quinolin-4-yloxy}-phenyl)-urea]
Second: COc1cc2nccc(Oc3ccc(NC(=O)NCCC(C)(C)C)cc3)c2cc1OCCCN1CCC(CO)CC1 [Compound 323, 1-(3,3-Dimethyl-butyl)-3-(4-{6-[3-(4-hydroxymethyl-piperidin-1-yl)-propoxy]-7-methoxy-quinolin-4-yloxy}-phenyl)-urea]
The IC50 of the first is 1.5-fold lower: 247 nM for the first, 373 nM for the second. The first is the more potent here.

Going from `COc1cc2nccc(Oc3ccc(NC(=O)NCCC(C)(C)C)cc3)c2cc1OCCCN1CCC(CCO)CC1` [Compound 324, 1-(3,3-Dimethyl-butyl)-3-[4-(6-{3-[4-(2-hydroxy-ethyl)-piperidin-1-yl]-propoxy}-7-methoxy-quinolin-4-yloxy)-phenyl]-urea] to `COc1cc2c(Oc3ccc(NC(=O)NCCC(C)(C)C)cc3)ccnc2cc1OCCN(C)CCO` [Compound 328, 1-(3,3-Dimethyl-butyl)-3-[4-(7-{2-[(2-hydroxy-ethyl)-methyl-amino]-ethoxy}-6-methoxy-quinolin-4-yloxy)-phenyl]-urea], the IC50 falls from 287 nM to 37 nM (7.8-fold).

First: COc1cc2c(Oc3ccc(NC(=O)NCCC(C)(C)C)c(F)c3)ccnc2cc1OCCCN1CC(C)OC(C)C1 (stereo not shown) [Compound 325, 1-(3,3-Dimethyl-butyl)-3-(4-{7-[3-(2,6-dimethyl-morpholin-4-yl)-propoxy]-6-methoxy-quinolin-4-yloxy}-2-fluoro-phenyl)-urea]
Second: COc1cc2c(Oc3ccc(NC(=O)NCCC(C)(C)C)c(F)c3)ccnc2cc1OCCCN(C)CCO [Compound 333, 1-(3,3-Dimethyl-butyl)-3-[2-fluoro-4-(7-{3-[(2-hydroxy-ethyl)-methyl-amino]-propoxy}-6-methoxy-quinolin-4-yloxy)-phenyl]-urea]
The IC50 of the first is 3.6-fold higher: 34.2 nM for the first, 9.4 nM for the second.

First: COc1cc2c(Oc3ccc(NC(=O)NCCC(C)(C)C)c(F)c3)ccnc2cc1OCCNCCO [Compound 329, 1-(3,3-Dimethyl-butyl)-3-(2-fluoro-4-{7-[2-(2-hydroxy-ethylamino)-ethoxy]-6-methoxy-quinolin-4-yloxy}-phenyl)-urea]
Second: COc1cc2c(Oc3ccc(NC(=O)NCCC(C)(C)C)c(F)c3)ccnc2cc1OCCCNCCO [Compound 332, 1-(3,3-Dimethyl-butyl)-3-(2-fluoro-4-{7-[3-(2-hydroxy-ethylamino)-propoxy]-6-methoxy-quinolin-4-yloxy}-phenyl)-urea]
The IC50 of the first is 1.9-fold higher: 20.8 nM for the first, 10.8 nM for the second. The second is the more potent here.

Compared with `COc1cc2c(Oc3ccc(NC(=O)NCCC(C)(C)C)c(F)c3)ccnc2cc1OCCN(C)CCO` [Compound 330, 1-(3,3-Dimethyl-butyl)-3-[2-fluoro-4-(7-{2-[(2-hydroxy-ethyl)-methyl-amino]-ethoxy}-6-methoxy-quinolin-4-yloxy)-phenyl]-urea], `COc1cc2c(Oc3ccc(NC(=O)NCCC(C)(C)C)c(Cl)c3)ccnc2cc1OCCNCCO` [Compound 331, 1-(2-Chloro-4-{7-[2-(2-hydroxy-ethylamino)-ethoxy]-6-methoxy-quinolin-4-yloxy}-phenyl)-3-(3,3-dimethyl-butyl)-urea] is 1.7-fold higher in IC50: 17.8 nM for the first, 30.1 nM for the second. The first is the more potent here.

In the case of `COc1cc2c(Oc3ccc(Nc4ccc(C(C)(C)C)cc4)c(F)c3)ccnc2cc1OCCN(CCO)CCO` [Compound 335, 2-[(2-{4-[4-(4-Tert-butyl-phenylamino)-3-fluoro-phenoxy]-6-methoxy-quinolin-7-yloxy}-ethyl)-(2-hydroxy-ethyl)-amino]-ethanol], the IC50 is reported as 95.3 nM.
